Source: patent US11246873B2, “Directed differentiation of oligodendrocyte precursor cells to a myelinating cell fate” (The Scripps Research Institute, priority 2011, dated 2022)
Entries after “also recorded” stand apart in the source; their conditions may differ.

Legend:
[1] = tested on: rat optic nerve derived OPCs; experiment: High content imaging assay of OPC differentiation (MBP immunostaining, OPERA); format: cell-based; details: for induction of OPC differentiation (MBP staining): OPCs in differentiation medium (2 ng/ml PDGF), 6 days
Protocol: FIG. 1A-C. […] The calculated EC50 values were determined using appropriate Graphpad Prism 5.0 curve fitting software. […] OPCs were plated in 384 well plates at 1000 cells per well in OPC media containing basal PDGF-αα (2 ng/mL) and treated with serial dilutions of compounds. Following six days of compound treatment, cells were fixed and subjected to immunofluorescence analysis using anti-myelin basic protein (MBP) antibody. Image acquisition and quantification of MBP staining was performed using the OPERA imaging system.
FIG. 11A-B. Screen to identify inducers of OPC differentiation. (A) OPCs were maintained as proliferating A2B5-positive cells under basal growth conditions (Neurobasal medium, B27 supplement without Vitamin A, non-essential amino acids, L-Glutamine, 30 ng/ml PDGF). OPCs were plated in basal differentiation media (Neurobasal medium, B27 supplement without Vitamin A, non-essential amino acids, L-Glutamine, 2 ng/ml PDGF), treated with DMSO (<0.1%) or thyroid hormone (1 uM), fixed after 6 days in culture, and stained using antibodies for CNP, O4, or MBP. […] (B) Screen strategy using A2B5 positive OPCs cultured under basal differentiation conditions and treated with compounds for 6 days to identify small molecules that induce the differentiation of OPCs to mature, MBP expressing oligodendrocytes.
FIG. 12A-B. Primary hit confirmation. (A) Dose response assay used to confirm primary screening hits and determine potency (EC50). (EC50) is defined as the concentration that results in a half maximal increase in the percentage of total cells that express MBP as detected by immunostaining. […] Cells were fixed and immunostained using antibodies for MBP. Error bars represent standard deviations from 3 replicate experiments. […]
FIG. 21. […] OPCs were plated in differentiation medium (2 ng/ml PDGF) and treated with various concentrations of compounds for 6 days. Cells were fixed and immunostained for MBP.
A large-scale small molecule screen was conducted to identify small molecules that promote the differentiation of oligodendrocyte precursor cells (OPCs) to a mature myelinating fate. High content imaging was used to detect in-well differentiation of rat optic nerve derived OPCs. Rat optic nerve derived OPCs were expanded en masse in OPC media containing 30 ng/mL PDGFαα. To screen for small molecule inducers of OPC differentiation, OPCs (cultured for fewer than 15 passages) were plated in poly-D-lysine coated 384 well culture plates in OPC Media containing 2 ng/mL PDGFαα and immediately treated with compounds at a final concentration of 6 μM (0.6% DMSO). Compound treated cells were incubated at 37° C., 5% CO2 for 6 days. At the end of 6 days, cells were fixed in 4% paraformaldehyde and subjected to immunofluorescence analysis. Anti-Myelin Basic Protein monoclonal antibody (a.a. 129-138, clone 1 monoclonal antibody, Millipore) (1:1000 dilution) in blocking buffere solution (3% BSA, 0.3% Triton X-100 in PBS) was added to fixed and washed cells and incubated at 4° C. overnight.

[2] = tested on: OPCs; experiment: qRT-PCR of MBP and MOG expression in compound treated OPCs; format: cell-based, rat; details: EC90 concentrations, 6 days
Source text: FIG. 2A-C. […] (A) Western blot analysis of OPCs treated with compounds at EC90 concentrations for 6 days. Total protein was isolated from cell pellets and probed for myelin basic protein (MBP) and myelin oligodendrocyte glycoprotein (MOG) using specific antibodies. (B-C) Quantitative RT-PCR (qRT-PCR) analysis of OPCs treated with compounds at EC90 concentrations for 6 days. Total RNA was isolated from cell pellets and reverse transcribed. MBP and MOG expression was quantified using specific probes and Taqman-based qRT-PCR. Expression was normalized to the internal controls β-actin and GAPDH. Fold change in gene expression over DMSO treated control cells is plotted for MBP (B) and MOG (C).

[3] = tested on: OPCs; experiment: Western blot of MBP and MOG in compound treated OPCs; format: cell-based, rat; details: OPCs treated 6 days
Source text: FIG. 2A-C. Neurotransmitter receptor modulating agents induce the differentiation of OPCs to a myelinating oligodendrocyte cell fate. (A) Western blot analysis of OPCs treated with compounds at EC90 concentrations for 6 days. Total protein was isolated from cell pellets and probed for myelin basic protein (MBP) and myelin oligodendrocyte glycoprotein (MOG) using specific antibodies. (B-C) Quantitative RT-PCR (qRT-PCR) analysis of OPCs treated with compounds at EC90 concentrations for 6 days. Total RNA was isolated from cell pellets and reverse transcribed. MBP and MOG expression was quantified using specific probes and Taqman-based qRT-PCR. Expression was normalized to the internal controls β-actin and GAPDH. Fold change in gene expression over DMSO treated control cells is plotted for MBP (B) and MOG (C).
FIG. 13. […] After 6 days in culture, cells were analyzed for MBP and MOG expression by Western blot.

[4] = tested on: OPCs; experiment: Immunofluorescence analysis of mature oligodendrocyte markers (MBP, MOG, CNP, GalC, O1, O4); format: cell-based, rat; details: OPCs treated 6 days
Source text: FIG. 3. Immunofluorescence analysis of compound treated OPCs using mature oligodendrocyte specific markers. Immunofluorescence staining using specific antibodies for MBP, MOG, and 2′,3′-cyclic nucleotide 3′ phosphodiesterase (CNP). Nuclei were identified using DAPI.
FIG. 4. Immunofluorescence analysis of compound treated OPCs using mature oligodendrocyte specific markers. Immunofluorescence staining using specific antibodies for galactocereberoside (GalC), oligodendrocyte marker O1 (O1) and oligodendrocyte marker O4 (O4). Nuclei were identified using DAPI.
FIG. 14. Compound treatment induces the differentiation of OPCs to mature oligodendrocytes. […] Cells were fixed and immunostained for MBP, MOG, CNP, GalC, O1, or O4.
Immunofluorescence was also used to confirm that the hits were able to induce oligodendrocyte maturation.

[5] = tested on: muscarinic receptor; experiment: Carbachol co-treatment in compound induced OPC differentiation (MBP staining); format: cell-based, rat; details: compounds at EC90 (benztropine 2.3 uM), serial dilutions of carbachol, 6 days
Protocol: (§1) Following 6 days of treatment, cells were fixed and stained for MBP. Plates were imaged using the OPERA high content screening system and MBP staining was quantified as described. […] OPCs were plated in 384-well plates at 5000 cells per well in media containing basal PDGF-αα. Cells were equilibrated with Ca^2+ sensitive Fluo-3AM® dye in HBSS for 30 min. […] Ca^2+ influx was immediately measured using the FLIPR TETRA® system.
OPCs express mAChRs, predominantly subtypes M1, M3, and M5 (F. Ragheb et al., J Neurochem, 77, 1396 (2001)). […] Activation of M1 and M3 mAChRs is coupled to downstream signal transduction events through phospholipase C, which results in increased intracellular calcium concentrations (F. Ragheb et al., J Neurochem, 77, 1396 (2001)) (FIG. 23C). M2 and M4 mAChR activation inhibits adenylatecyclase, leading to decreased intracellular cAMP levels (C. C. Felder, FASEB J, 9, 619 (1995); M. Lopez-Ilasaca et al., Science, 275, 394 (1997)). […] Acetylcholine is a known regulator of OPC proliferation and, as such, muscarinic receptor subtypes represent a reasonable class of therapeutic targets for the modulation of OPC proliferation and differentiation (F. De Angelis et al., Dev Neurobiol, (2011)).

[6] = tested on: M1/M3 muscarinic receptors
Protocol: as §1
(A-C) OPCs were plated in differentiation media for 12 hours. […] (C) Atropine, a muscarinic antagonist, serves as a positive control. (D) OPCs were plated in differentiation medium for 12 hours. A cAMP-HTRF assay was performed using the cAMP dynamic 2 kit. […] IBMX was added as a cAMP stabilizer, and forskolin was a positive control.

[7] = tested on: PLP induced EAE mice
Protocol: (A-E) SJL mice were immunized with proteolipid peptide (PLP) and pertussis toxin and monitored daily with scoring on the standard clinical EAE scale (0-5). Compounds were administered daily for the duration of the study in saline at 10 mg/kg via intra-peritoneal injection (0.1 ml), starting on the day of the appearance of clinical EAE symptoms (day 10). […] Mean clinical EAE score and standard error of mean (SEM) are shown for each study group.
FIG. 25. […] EAE was induced in mice using PLP and pertussis toxin. […] Prophylactic dosing is defined as administration of compound commenced on the day of PLP injection. Error bars indicate standard deviation of the mean within each group of 8 mice.
(A-F) EAE was induced in mice using PLP and pertussis toxin. […] Error bars indicate standard deviation of the mean within each group of 8 mice.
(A-F) EAE was induced in mice by injecting PLP in complete Freund's adjuvant (CFA) and pertussis toxin, and the animals were scored daily for clinical severity of disease on a scale of 0-5. […] Error bars indicate standard deviation of the mean within each group of 8-10 mice.
10 week old SJL mice were immunized with PLP emulsion and pertusis toxin to induce EAE. […] Compounds were administered daily via intraperitoneal injection of 100 ul in sterile saline at 10 mg/kg alone or in combination with mycophenolate motefil in sterile saline at pH 5 at 20 mg/kg. Compound administration was initiated at disease onset (day 10) while mycophenolate motefil administration was initiated on Day 14. The mice were scored daily on a standard EAE scale of 0-5.
This model is most commonly used to evaluate the potential efficacy of immunomodulatory agents, but can also be used to determine the effectiveness of promyelinating agents that function by enhancing OPC differentiation (M. Fernandez et al., Proc Natl Acad Sci U.S.A, 101, 16363 (2004); X. Lee et al., J Neurosci, 27, 220 (2007); reviewed in R. J. Franklin, C. Ffrench-Constant, Nat Rev Neurosci, 9, 839 (2008)). […] We next evaluated efficacy when the drug is dosed therapeutically, by starting daily injections at the first sign of disease onset.
For the treatment of MS, an OPC differentiation inducing drug would most likely be introduced clinically as part of a combination therapy with an immunosuppressive drug. […] The former reduces T-cell proliferation and alters cytokine expression (A. Noronha, A. Toscas, M. A. Jensen, J Neuroimmunol, 46, 145 (1993); A. Noronha, A. Toscas, M. A. Jensen, Ann Neurol, 27, 207 (1990)), while the latter is an S1P agonist that regulates T-cell trafficking (V. Brinkmann et al., J Biol Chem, 277, 21453 (2002); V. Brinkmann et al., Nat Rev Drug Discov, 9, 883 (2010)).

[8] = tested on: total splenocytes stimulated with CD3; experiment: T-cell activation (CD69, CD25) and proliferation (CFSE) in vitro; format: cell-based, mouse; details: versus DMSO
Source text: (A-F) Total splenocytes were isolated from mice and stimulated with CD3 and analyzed by flow cytometry for expression of T-cell activation markers CD69 and CD25 and T-cell proliferation using CFSE. (A) Unstimulated cells. (B) DMSO treated cells. […] The numbers represent percentage gated populations positive for the given marker.
The primary immunological processes involved in MS and EAE are T-cell mediated and the primary treatment paradigms are based on immunomodulatory drugs (T. Kopadze et al., Arch Neurol, 63, 1572 (2006); J. M. Greer et al., J Immunol, 180, 6402 (2007), M. P. Pender and J. M. Greer, curr Allergy Asthma Rep, 7, 285 (2007)).

| SMILES | percentage of resulting MBP-positive cells ([1]; OPC sample cultured with agent at maximum potency, listed as GBT12935) | induction of OPC differentiation (MBP staining) [1] | induction of MBP expression (qRT-PCR) over DMSO [2] | induction of MOG expression (qRT-PCR) over DMSO [2] | MBP and MOG expression (Western blot) [3] | markers of mature myelinating oligodendrocytes (MBP, MOG, CNP, GalC, O1, O4) by immunofluorescence [4] | effect of carbachol on compound induced OPC differentiation [5] | effect on carbachol induced Ca2+ influx [6] | mean maximal clinical EAE score in relapse, day 25 ([7]; SJL mice, scale 0-5, compounds 10 mg/kg i.p. daily from day 10, mycophenolate mofetil 20 mg/kg from day 14, mean ± SEM) | clinical severity versus vehicle, dosing after disease onset (therapeutic mode) ([7]; compounds 10 mg/kg i.p. daily from first EAE symptoms, mycophenolate 20 mg/kg from day 14) | T-cell activation (CD69, CD25) [8] | T-cell proliferation (CFSE) [8] | effect of carbachol on compound induced OPC differentiation ([5]; listed as carbapentane) |
| --- | --- | --- | --- | --- | --- | --- | --- | --- | --- | --- | --- | --- | --- |
| c1ccc(CCCN2CCN(CCOC(c3ccccc3)c3ccccc3)CC2)cc1 [GBR12935] | over 15% | promote OPC differentiation | two-fold | two-fold | positive | confirmed the presence of multiple markers of mature myelinating oligodendrocytes | did not inhibit; also recorded: no effect | no effect |  |  |  |  |  |
| COc1c(C)c2c(c(O)c1C/C=C(\C)CCC(=O)OCCN1CCOCC1)C(=O)OC2 [Mycophenolate mofetil, mycophenolate mofetil] |  |  |  |  |  |  |  |  | 0.7±0.3 | decrease in severity of the relapse | suppresses the activation and proliferation of T-cells | suppresses T-cell proliferation |  |
| CCN(CC)CCOCCOC(=O)C1(c2ccccc2)CCCC1 [carbetapentane] |  | promote OPC differentiation | two-fold | two-fold | positive | confirmed the presence of multiple markers of mature myelinating oligodendrocytes | inhibited | inhibit |  |  |  |  | dose dependent inhibition |
| OCc1cc(C(O)CNCCCCCCOCCCCc2ccccc2)ccc1O (stereo not drawn) [salmeterol] |  | promote OPC differentiation | two-fold | two-fold | positive | confirmed the presence of multiple markers of mature myelinating oligodendrocytes | did not inhibit; also recorded: no effect | no effect |  |  |  |  |  |
